Assay [1] concerns the target T1, hCGRP receptor (CALCRL:RAMP1) (Homo sapiens, UniProt O60894+Q16602).
T1 construct: host or cells: GeneBLAzer CALCRL:RAMP1-CRE-bla Freestyle 293F
The assay can be described thus: CGRP receptor antagonist activity measured by cAMP assay (HTRF). The conditions noted are these: agonist human α-CGRP; for Emax: % MPE: percent of the maximal possible effect, read-out: hCGRP-R Efficacy Antag (%) Ave; for IC50: GeneBLAzer CALCRL:RAMP1-CRE-bla Freestyle 293F cells, 30 minutes, read-out: hCGRP-R IC50 Ave. It counts as cell-based.

Assay [2] has as its target T2, hAM2 receptor (CALCRL:RAMP3) (Homo sapiens, UniProt O60896+Q16602).
T2 construct: expressed in transfected cells; host or cells: GeneBLAzer CALCRL:RAMP3-CRE-bla Freestyle 293F
Nature of the assay: AM2 receptor antagonist activity measured by cAMP assay (HTRF). It counts as cell-based. The conditions noted are these: for Emax: % MPE: percent of the maximal possible effect, read-out: hAM2-R Efficacy Antag (%) Ave; for Emax / IC50: agonist human adrenomedullin; for IC50: GeneBLAzer CALCRL:RAMP3-CRE-bla Freestyle 293F cells, read-out: hAM2-R IC50 Ave; for selectivity ratio CGRP/AM2: selectivity ratio for hCGRP over hAM2, calculated from the IC50 values.
Protocol: Antagonist activity for the adrenomedullin receptor AM2 was determined using the method described in Example 6 above, with the following modifications. Instead of GeneBLAzer® CALCRL:RAMP1-CRE-bla Freestyle™ 293F cells, GeneBLAzer® CALCRL:RAMP3-CRE-bla Freestyle™ 293F cells were used to test activity at hAM2 receptors. The agonist was human adrenomedullin, instead of α-CGRP.
In Table 5, the selectivity ratio for hCGRP over hAM2 is calculated as hCGRP-R IC50/hAM2-R IC50.

Structures are written as SMILES. Numbered stars: 1 amine (or outer) side, 2 acyl side, 3 side chain; on linkers, the order of the positions; unused ones are H or OH. Bridge positions count the residues as written; N and C are the ends. Square brackets hold non-standard residues; d marks the D form. Peptide text beside a SMILES is read from it. * marks the point of attachment. Phe(3-CH2NH2) = O=C([C@H](Cc1cccc(CN[*:3])c1)N[*:1])[*:2]; Phe(2-CONH2) = NC(=O)c1ccccc1C[C@H](N)C(=O)O; Picolinoyl(3,5-F2) = O=C(c1ncc(F)cc1F)*; Imidazole4carbonyl = O=C(c1cnc[nH]1)*; Picolinoyl(5-F) = O=C(c1ccc(F)cn1)*; Orn(iPr) = CC(C)NCCC[C@H](N)C(=O)O; 3Pal = N[C@@H](Cc1cccnc1)C(=O)O; ΔPro = O=C(O)[C@@H]1C=CCN1; X12 = Cc1cccnc1C(=O)*; X1 = O=C(c1ncccc1F)*; X9 = Nc1cccnc1C(=O)*; X10 = O=C(c1nccs1)*; X6 = O=C(c1ccncn1)*

Results on nine compounds are retold here after patent publication US9969775B2, “CGRP antagonist peptides” (Ferring B.V., priority 2015, dated 2018).

T1 sequence (Q16602 23-461): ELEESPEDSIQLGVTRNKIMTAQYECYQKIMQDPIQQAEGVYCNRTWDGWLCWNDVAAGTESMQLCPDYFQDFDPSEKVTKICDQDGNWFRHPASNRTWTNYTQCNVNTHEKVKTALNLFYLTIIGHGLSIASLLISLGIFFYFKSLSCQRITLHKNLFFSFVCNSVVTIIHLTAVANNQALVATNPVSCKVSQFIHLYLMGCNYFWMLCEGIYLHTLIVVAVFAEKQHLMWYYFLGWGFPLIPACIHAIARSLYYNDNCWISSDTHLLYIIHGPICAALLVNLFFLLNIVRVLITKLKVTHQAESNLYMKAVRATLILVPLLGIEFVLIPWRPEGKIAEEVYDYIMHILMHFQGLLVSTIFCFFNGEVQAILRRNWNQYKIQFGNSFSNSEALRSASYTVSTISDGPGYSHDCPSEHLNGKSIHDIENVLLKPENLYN
T1 sequence (O60894 27-148): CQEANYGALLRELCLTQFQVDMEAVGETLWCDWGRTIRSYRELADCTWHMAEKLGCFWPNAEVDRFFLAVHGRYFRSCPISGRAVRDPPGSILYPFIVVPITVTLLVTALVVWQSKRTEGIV
T2 sequence (Q16602 23-461): as the sequence (Q16602 23-461) above
T2 sequence (O60896 24-148): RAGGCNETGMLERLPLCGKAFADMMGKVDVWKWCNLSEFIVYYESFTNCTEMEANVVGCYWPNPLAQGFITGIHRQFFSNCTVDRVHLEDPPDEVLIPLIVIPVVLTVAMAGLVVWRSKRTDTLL

For the compound `CC(C)[C@@H]1NC(=O)[C@H](CC(=O)O)NC(=O)[C@H](CCCNC(=N)N)NC(=O)[C@@H](NC(=O)[C@H](Cc2ccccc2C(N)=O)NC(=O)[C@H](NC(=O)c2ccncn2)C(C)C)CSSC[C@@H](C(=O)N[C@@H](Cc2cccnc2)C(N)=O)NC(=O)[C@H](Cc2cccc(CN)c2)NC(=O)[C@@H]2C=CCN2C(=O)CNC1=O` [Compound 31, Pyrimidine-4-carbonyl-D-Val-Phe(2-Cbm)-c(Cys-Arg-Asp-Val-Gly-Dhp-Phe(3-CH2NH2)-Cys)-3Pal-NH2] (X6-[dV][Phe(2-CONH2)]CRDVG[ΔPro][Phe(3-CH2NH2)]C[3Pal]-NH2; disulfide 3-10), in assay [1], the Emax was 100% and the IC50 is 0.12 nM. In addition, in assay [2], the Emax is 100%, the IC50 is 46 nM and the “selectivity ratio CGRP/AM2” value is 390.
As to `CC(C)[C@@H]1NC(=O)[C@H](CC(=O)O)NC(=O)[C@H](CCCNC(=N)N)NC(=O)[C@@H](NC(=O)[C@H](Cc2ccccc2C(N)=O)NC(=O)[C@H](NC(=O)c2ncccc2F)C(C)C)CSSC[C@@H](C(=O)N[C@@H](Cc2cccnc2)C(N)=O)NC(=O)[C@H](Cc2cccc(CN)c2)NC(=O)[C@@H]2C=CCN2C(=O)CNC1=O` [Compound 32, Picolinoyl(3-F)-D-Val-Phe(2-Cbm)-c(Cys-Arg-Asp-Val-Gly-Dhp-Phe(3-CH2NH2)-Cys)-3Pal-NH2] (X1-[dV][Phe(2-CONH2)]CRDVG[ΔPro][Phe(3-CH2NH2)]C[3Pal]-NH2; disulfide 3-10), in assay [1], the Emax was 100% and the IC50 is 0.12 nM. Further, in assay [2], the Emax was 99%, the IC50 is 61 nM and the “selectivity ratio CGRP/AM2” value is given as 498.
For `CC(C)[C@@H]1NC(=O)[C@H](CC(=O)O)NC(=O)[C@H](CCCNC(=N)N)NC(=O)[C@@H](NC(=O)[C@H](Cc2ccc(O)cc2)NC(=O)[C@H](NC(=O)c2nccs2)C(C)C)CSSC[C@@H](C(=O)N[C@@H](Cc2cccnc2)C(N)=O)NC(=O)[C@H](Cc2ccccc2)NC(=O)[C@@H]2CCCN2C(=O)CNC1=O` [Compound 33] (X10-[dV]YCRDVGPFC[3Pal]-NH2; disulfide 3-10), in assay [1], the Emax was 100% and the IC50 was 0.1 nM. Besides, in assay [2], the Emax is 100%, the IC50 is 11 nM and the “selectivity ratio CGRP/AM2” value is recorded as 117.
As to `Cc1cccnc1C(=O)N[C@@H](C(=O)N[C@@H](Cc1ccc(O)cc1)C(=O)N[C@H]1CSSC[C@@H](C(=O)N[C@@H](Cc2cccnc2)C(N)=O)NC(=O)[C@H](Cc2ccccc2)NC(=O)[C@@H]2CCCN2C(=O)CNC(=O)[C@H](C(C)C)NC(=O)[C@H](CC(=O)O)NC(=O)[C@H](CCCNC(=N)N)NC1=O)C(C)C` [Compound 34] (X12-[dV]YCRDVGPFC[3Pal]-NH2; disulfide 3-10), in assay [1], the Emax was 100% and the IC50 was 0.14 nM. In addition, in assay [2], the Emax is 100%, the IC50 is 7.9 nM and the “selectivity ratio CGRP/AM2” value is given as 58.
Turning to `CC(C)[C@@H]1NC(=O)[C@H](CC(=O)O)NC(=O)[C@H](CCCNC(=N)N)NC(=O)[C@@H](NC(=O)[C@H](Cc2ccc(O)cc2)NC(=O)[C@H](NC(=O)c2ncc(F)cc2F)C(C)C)CSSC[C@@H](C(=O)N[C@@H](Cc2cccnc2)C(N)=O)NC(=O)[C@H](Cc2ccccc2)NC(=O)[C@@H]2CCCN2C(=O)CNC1=O` [Compound 35] ({Picolinoyl(3,5-F2)}-[dV]YCRDVGPFC[3Pal]-NH2; disulfide 3-10), in assay [1], the Emax is 100% and the IC50 is 0.06 nM. For the same compound, in assay [2], the Emax is 101%, the IC50 was 33 nM and the “selectivity ratio CGRP/AM2” value is given as 580.
Take `CC(C)[C@@H]1NC(=O)[C@H](CC(=O)O)NC(=O)[C@H](CCCNC(=N)N)NC(=O)[C@@H](NC(=O)[C@H](Cc2ccc(O)cc2)NC(=O)[C@H](NC(=O)c2ncccc2N)C(C)C)CSSC[C@@H](C(=O)N[C@@H](Cc2cccnc2)C(N)=O)NC(=O)[C@H](Cc2ccccc2)NC(=O)[C@@H]2CCCN2C(=O)CNC1=O` [Compound 36] (X9-[dV]YCRDVGPFC[3Pal]-NH2; disulfide 3-10): in assay [1], the Emax is 100% and the IC50 is 0.17 nM. In assay [2], the Emax was 101%, the IC50 was 16 nM and the “selectivity ratio CGRP/AM2” value is reported as 93.
For `CC(C)[C@@H]1NC(=O)[C@H](CC(=O)O)NC(=O)[C@H](CCCNC(=N)N)NC(=O)[C@@H](NC(=O)[C@H](Cc2ccc(O)cc2)NC(=O)[C@H](NC(=O)c2cnc[nH]2)C(C)C)CSSC[C@@H](C(=O)N[C@@H](Cc2cccnc2)C(N)=O)NC(=O)[C@H](Cc2ccccc2)NC(=O)[C@@H]2CCCN2C(=O)CNC1=O` [Compound 37] (Imidazole4carbonyl-[dV]YCRDVGPFC[3Pal]-NH2; disulfide 3-10), in assay [1], the Emax was 100% and the IC50 is 0.17 nM. For the same compound, in assay [2], the Emax is 100%, the IC50 was 379 nM and the “selectivity ratio CGRP/AM2” value is given as 2295.
Consider `CC(C)NCCC[C@@H]1NC(=O)[C@@H](NC(=O)[C@H](Cc2ccccc2C(N)=O)NC(=O)[C@H](NC(=O)c2ccc(F)cn2)C(C)C)CSSC[C@@H](C(=O)N[C@@H](Cc2cccnc2)C(N)=O)NC(=O)[C@H](Cc2cccnc2)NC(=O)[C@@H]2C=CCN2C(=O)CNC(=O)[C@H](C(C)C)NC(=O)[C@H](CC(=O)O)NC1=O` [Compound 38, Picolinoyl(5-F)-D-Val-Phe(2-Cbm)-c(Cys-Orn(iPr)-Asp-Val-Gly-Dhp-3Pal-Cys)-3Pal-NH2] ({Picolinoyl(5-F)}-[dV][Phe(2-CONH2)]C[Orn(iPr)]DVG[ΔPro][3Pal]C[3Pal]-NH2; disulfide 3-10), for which, in assay [1], the Emax is 100% and the IC50 was 0.06 nM. Moreover, in assay [2], the Emax is 101%, the IC50 is 87 nM and the “selectivity ratio CGRP/AM2” value was 1478.
The matching figures for `CC(C)NCCC[C@@H]1NC(=O)[C@@H](NC(=O)[C@H](Cc2ccccc2C(N)=O)NC(=O)[C@H](NC(=O)c2ccc(F)cn2)C(C)C)CSSC[C@@H](C(=O)N[C@@H](Cc2cccnc2)C(N)=O)NC(=O)[C@H](Cc2cccnc2)NC(=O)[C@@H]2CCCN2C(=O)CNC(=O)[C@H](C(C)C)NC(=O)[C@H](CC(=O)O)NC1=O` [Compound 39, Picolinoyl(5-F)-D-Val-Phe(2-Cbm)-c(Cys-Orn(iPr)-Asp-Val-Gly-Pro-3Pal-Cys)-3Pal-NH2] ({Picolinoyl(5-F)}-[dV][Phe(2-CONH2)]C[Orn(iPr)]DVGP[3Pal]C[3Pal]-NH2; disulfide 3-10): 100%, 0.13 nM, 101%, 275 nM and 2125.

Usually IC50 stands for the concentration needed to halve the response being measured.
